Experimental data: PubChem BioAssay (NCI)
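Assay format: 96-well plates, 48-hour exposure. TGI denotes the concentration required for complete inhibition of growth.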

Tests used:
Experiment in all cases: NCI-60 cell line screen, 48 h
[1] = system: NCI-H226 lung
[2] = system: MDA-MB-231 breast
[3] = system: SF-268 CNS
[4] = system: U251 CNS
[5] = system: COLO 205 colon
[6] = system: BT-549 breast
[7] = system: SK-MEL-5 melanoma
[8] = system: HT29 colon
[9] = system: SW-620 colon
[10] = system: DU-145 prostate
[11] = system: HS 578T breast
[12] = system: MALME-3M melanoma
[13] = system: HL-60(TB) leukemia
[14] = system: HCC-2998 colon

| Compound | TGI [1] | TGI [2] | TGI [3] | TGI [4] | TGI [5] | TGI [6] | TGI [7] | TGI [8] | TGI [9] | TGI [10] | TGI [11] | TGI [12] | TGI [13] | TGI [14] |
| --- | --- | --- | --- | --- | --- | --- | --- | --- | --- | --- | --- | --- | --- | --- |
| COc1cc2c(/C=C3/C(=O)Nc4cc(C)c(O)cc43)c(Cl)[nH]c2cc1C | 23.6 µM | 8.99 µM | 31.9 µM | 15.7 µM | 4.62 µM | 45.3 µM | 12.5 µM | 5.31 µM | 12.4 µM | 10.5 µM | 7.35 µM | 11.6 µM | – | – |
| COc1ccccc1NC(=S)Nc1ccccn1 | > 100 µM | > 100 µM | > 100 µM | > 100 µM | > 100 µM | > 100 µM | > 100 µM | > 100 µM | > 100 µM | – | > 100 µM | > 100 µM | > 100 µM | – |
| O=C(O)CNc1ncc2c(n1)-c1ccccc1OC2 | – | > 100 µM | > 100 µM | > 100 µM | > 100 µM | – | > 100 µM | > 100 µM | > 100 µM | > 100 µM | > 100 µM | > 100 µM | > 100 µM | – |
| C[C@]12CC/C(=N\OCCN3CCCC3)C=C1CCC1C2CC[C@@]2(C)C1CC[C@]2(C)O (some centres undefined) | 11.8 µM | 34 µM | 31.9 µM | 20.2 µM | 11.9 µM | 28.2 µM | 29.9 µM | 5.69 µM | – | 39.5 µM | 43.7 µM | 18.7 µM | – | 24.3 µM |
| CN(C)/C=N/S(=O)(=O)c1nn2c(C=O)c(-c3ccc(-c4ccccc4)cc3)nc2s1 | 32.4 µM | 7.35 µM | 6.23 µM | 3.17 µM | – | 3.05 µM | 3.04 µM | 1.49 µM | > 26.9 µM | 6.13 µM | – | 2.71 µM | 0.342 µM | 11.7 µM |
| ON[C@@H]1C=C[C@H](n2cnc3c(NC4CC4)ncnc32)C1 | > 100 µM | > 100 µM | > 100 µM | > 100 µM | > 100 µM | > 100 µM | > 100 µM | > 100 µM | > 100 µM | > 100 µM | > 100 µM | > 100 µM | – | > 100 µM |
| CCOC(=O)C1Cc2ccc(C)cc2C1=O (centres undefined) | > 100 µM | > 100 µM | > 100 µM | > 100 µM | > 100 µM | – | > 100 µM | > 100 µM | > 100 µM | > 100 µM | > 100 µM | > 100 µM | 69.9 µM | > 100 µM |
| CCOC(=O)C1=C(C)N(Cc2ccccc2)C2(O)C=CC(=O)C3C(=O)N(c4ccccc4)C(=O)C132 (centres undefined) | 5.7 µM | 12.1 µM | 7.81 µM | 11.8 µM | 3.1 µM | – | 12.8 µM | 3.33 µM | – | 7.63 µM | 34 µM | 7.68 µM | 4.98 µM | 3.2 µM |
| c1ccc(CSCCC(SCc2ccccc2)SCc2ccccc2)cc1 | > 10 µM | > 10 µM | > 10 µM | > 10 µM | > 10 µM | – | > 10 µM | > 10 µM | > 10 µM | > 10 µM | > 10 µM | > 10 µM | > 10 µM | > 10 µM |
| COC(=O)/C=C1/OC(c2ccccc2)=C(Br)C1=O | > 100 µM | 66.3 µM | > 100 µM | > 100 µM | > 100 µM | 53.4 µM | > 100 µM | 50.6 µM | 36.7 µM | > 100 µM | – | > 100 µM | > 100 µM | > 100 µM |
| C=CCNC(=S)NC=C(C(N)=O)C(N)=O | > 100 µM | > 100 µM | > 100 µM | > 100 µM | > 100 µM | – | > 100 µM | > 100 µM | > 100 µM | > 100 µM | > 100 µM | > 100 µM | > 100 µM | > 100 µM |
| COc1cnc2oc3ccc(O)cc3c2c1-c1ccccc1 | – | – | > 100 µM | > 100 µM | > 100 µM | > 100 µM | > 100 µM | > 100 µM | > 100 µM | > 100 µM | > 100 µM | > 100 µM | > 100 µM | 92.1 µM |
| c1ccc(Nc2nnc(-c3ccccc3Nc3ccccc3-c3nnc(Nc4ccccc4)s3)s2)cc1 | > 100 µM | – | > 100 µM | > 100 µM | > 100 µM | > 100 µM | > 100 µM | > 100 µM | > 100 µM | > 100 µM | – | > 100 µM | > 100 µM | > 100 µM |
| CC(=O)NC1=C(NCCO)C(=O)c2ccccc2C1=O | > 50 µM | – | > 50 µM | > 50 µM | > 50 µM | – | > 50 µM | > 50 µM | > 50 µM | – | – | 46 µM | > 50 µM | > 50 µM |
| CCN1C(c2ccccc2)=CC(c2ccccc2)(C(Cl)(Cl)Cl)C=C1c1ccccc1 | > 100 µM | > 100 µM | 86.3 µM | > 100 µM | – | – | 4.46 µM | 21.8 µM | > 100 µM | > 100 µM | > 100 µM | 24 µM | 2.73 µM | 24.9 µM |
| Cc1cc(O)c(C(O)c2ccccn2)cc1O (centres undefined) | – | 33.3 µM | > 100 µM | > 100 µM | 23.4 µM | – | 38.4 µM | 44 µM | 41.1 µM | > 100 µM | > 100 µM | 40.1 µM | 53 µM | 70.3 µM |
| Cc1ccccc1-n1c(=O)nc2n(-c3ccc(C(C)(C)C)cc3)c3ccccc3cc-2c1=O | 38.2 µM | 42.9 µM | 83.2 µM | 28.3 µM | 41.6 µM | 69.6 µM | 28.5 µM | 34.6 µM | 33.5 µM | 77.1 µM | 79.7 µM | – | 43.2 µM | 32.4 µM |
| O=C(O)C(Cc1ccc(O)cc1)N=Cc1nc(-c2ccccc2)oc1O (centres undefined) | > 100 µM | – | > 100 µM | > 100 µM | > 100 µM | – | > 100 µM | > 100 µM | > 100 µM | – | – | > 100 µM | > 100 µM | > 100 µM |
| CCCCCCCCC#CCCCCCCC(F)C(=O)O (centres undefined) | > 100 µM | – | > 100 µM | > 100 µM | > 100 µM | – | > 100 µM | > 100 µM | > 100 µM | > 100 µM | > 100 µM | > 100 µM | 83.6 µM | > 100 µM |
